# According to patent US20100305060A1, “Nucleoside Prodrugs and Uses Thereof” (Ligand Pharmaceuticals Incorporated, priority 2007, published 2010):
# Read-outs that look alike come from different tables or passages of the source.
# Key:
# HCV [1] = conditions: phase 2 study, 1500 mg BID for 14 days; cited from earlier work
# HCV [2] = conditions: chimpanzee, 7 days, cited from earlier work
# [3] = molecular target: T1, Hepatitis C virus NS5B polymerase (Hepatitis C virus genotype 1b, UniProt Q9WMX2); conditions: compound tested as its triphosphate; read-out: NS5b IC50 of NTP; cited from earlier work
# T1 construct: Hepatitis C virus NS5B polymerase is an RNA-dependent RNA polymerase (RdRp)
# Replicon = conditions: cited from earlier work
# [4] = rat, in vivo, po, 50 mg/kg
# [5] = rat, in vivo, po, 50 mg/kg; cited from earlier work
# T1 sequence (Q9WMX2 2420-3010): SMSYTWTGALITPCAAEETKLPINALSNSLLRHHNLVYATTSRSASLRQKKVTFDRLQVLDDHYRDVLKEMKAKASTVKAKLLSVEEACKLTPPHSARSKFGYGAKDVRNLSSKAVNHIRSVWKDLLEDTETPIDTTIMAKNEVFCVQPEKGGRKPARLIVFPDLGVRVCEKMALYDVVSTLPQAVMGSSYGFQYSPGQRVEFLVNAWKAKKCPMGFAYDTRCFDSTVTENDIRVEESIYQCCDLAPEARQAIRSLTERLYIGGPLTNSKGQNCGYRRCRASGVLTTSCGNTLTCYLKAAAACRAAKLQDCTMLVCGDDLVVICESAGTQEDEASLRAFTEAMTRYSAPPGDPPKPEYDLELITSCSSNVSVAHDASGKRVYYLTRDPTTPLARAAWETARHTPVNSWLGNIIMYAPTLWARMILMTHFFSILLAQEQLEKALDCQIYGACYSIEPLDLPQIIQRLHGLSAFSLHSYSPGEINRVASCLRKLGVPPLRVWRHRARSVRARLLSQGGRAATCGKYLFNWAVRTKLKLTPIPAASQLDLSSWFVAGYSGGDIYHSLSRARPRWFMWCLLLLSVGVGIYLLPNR
structure (smiles),measurement,setting,value
CC(C)C(=O)OC[C@@]1(N=[N+]=[N-])O[C@@H](n2ccc(N)nc2=O)[C@H](OC(=O)C(C)C)[C@@H]1OC(=O)C(C)C [Compound 81626],mean reduction in serum viral titre,HCV [1],1.2 log10
C[C@@]1(O)[C@H](O)[C@@H](CO)O[C@H]1n1ccc2c(N)ncnc21 [MK-0608],reduction in viral titre,HCV [2]; intravenous 2 mg/kg/day,> 5 log10
CC(C)[C@H](N)C(=O)O[C@@H]1[C@@H](CO)O[C@@H](n2ccc(N)nc2=O)[C@]1(C)O [NM283],reduction in viral titre,HCV [2]; 16.6 mg/kg/day,1.15 log10
"C[C@@]1(F)[C@H](O)[C@@H](CO)O[C@H]1n1ccc(N)nc1=O [PSI-6130, β-D-2′-deoxy-2′-fluoro-2′-C-methylcytidine]",IC50,[3],130 nM
same,EC50,Replicon,600 nM
same,activity in the replicon assay,Replicon,potent
COC(=O)[C@H](C)NP(=O)(OC[C@H]1O[C@@H](n2ccc(=O)[nH]c2=O)[C@](C)(F)[C@@H]1O)Oc1ccccc1 (stereo partly drawn) [PSI-7672],EC50,Replicon,1600 nM
CC(C)OC(=O)[C@H](C)NP(=O)(OC[C@H]1O[C@@H](n2ccc(=O)[nH]c2=O)[C@](C)(F)[C@@H]1O)Oc1ccccc1 (stereo partly drawn) [PSI-7851],liver triphosphate level converted to molar units,[4],5.1 nmol/g
same,liver triphosphate levels,[5],2550 ng/g
"C[C@@]1(F)[C@H](O)[C@@H](CO)O[C@H]1n1ccc(=O)[nH]c1=O [RO2433, 2′-deoxy-2′-fluoro-2′-C-methyl-uridine]",IC50,[3],520 nM
same,EC50,Replicon,> 100000 nM
same,activity in the replicon assay,Replicon,inactive
